In patent US20110039873A1, “SUBSTITUTED PYRAZOLO[1,5-a] PYRIDINE COMPOUNDS HAVING MULTI-TARGET ACTIVITY” (priority 2009, published 2011):
Read-outs that look alike come from different tables or passages of the source.

What was measured:
[1] = test system: phosphorylated c-Jun (serine-73); assay: Phosphorylated c-JUN (A-beta), E18 rat neuronal cells; format: cell-based; conditions: Amyloid Beta peptide 30 uM, 3 hours, read-out: p-cJun Abeta E18 (EC50 in μM)
Experimental: (§1) In 96-well plates either human SH-SY5Y neuroblastoma cells at 2.5×10^4 cells/well or E18 rat neuronal cells at 1.5×10^4 cells/well were seeded. To each well the following was added, Amyloid Beta peptide 1-25 (source) at a concentration of 30 uM, retinoic acid (10 uM) and test compounds (0-30 uM) and incubated for 3 hours. Supernatant was discarded and cells were fixed with 4% paraformaldehyde (100 ul/well) for 20 minutes. FACE cell based ELISA assay (Active Motif) was performed specific for quantifying phosphorlyated c-Jun (serine-73).

[2] = biological target: T1, recombinant full length human JNK3 enzyme (Homo sapiens, UniProt P53779); assay: JNK 3 inhibition assay (ATP depletion, luciferase); format: biochemical; conditions: for IC50: 10 uM ATP, ATF2 substrate; for JNK-3 inhibition (in words): see Table 2
T1 construct: recombinant full length human JNK2 or JNK3 enzyme; purchased Upstate; host or cells: Sf21 cells
Experimental: In a 96-well plate, recombinant full length human JNK2 or JNK3 enzyme (40 ng) expressed in Sf21 cells (Upstate) was incubated with the substrate ATF2 (3 uM) for 1 hour in the presence of 10 uM ATP. […] The ATP levels were quantified using luciferase with luminescence read on a Victor Light 1420 luminometer. IC50 calculations were plotted using a nonlinear regression curve fit.

[3] = test system: phosphorylated c-Jun (serine-73); assay: Phosphorylated c-JUN (6-OHDA), SH-SY5Y; format: cell-based; conditions: Homo sapiens, 50 uM 6-hydroxydopamine, 1.5 hours, read-out: p-cJun 6-OHDA SH-SY5Y (EC50 in μM)
Experimental: Human SH-SY5Y neuroblastoma cells were cultured in 96-well plates with 2.5×10^4 cells/well and incubated for 48 hours. 6-hydroxydopamine was added at a concentration of 50 uM in the presence or absence of test compounds (0-30 uM) and incubated for 1.5 hours. Supernatant was discarded and cells were fixed with 4% paraformaldehyde (100 ul/well) for 20 minutes. FACE cell based ELISA assay (Active Motif) was performed specific for quantifying phosphorlyated c-Jun (serine-73).

[4] = biological target: T2, recombinant human phosphodiesterase 10A1 enzyme (Homo sapiens, UniProt Q9Y233); assay: PDE10 inhibition assay (PDELight); format: biochemical; conditions: for IC50: 1 uM cAMP, read-out: PDE 10 Inhibition (IC50 in μM); for PDE-10 inhibition (in words): Table 2
T2 construct: purchased BPS Biosciences; host or cells: Baculovirus infected Sf9 cells

[5] = test system: phosphorylated c-Jun (serine-73); assay: Phosphorylated c-JUN (A-beta), SH-SY5Y; format: cell-based; conditions: Homo sapiens, Amyloid Beta peptide 30 uM, 3 hours, read-out: p-cJun Abeta SH-SY5Y (EC50 in μM)
Experimental: as §1, with “To each well the following was added, Amyloid Beta peptide 1-25 (source) at a concentration of 30 uM, retinoic acid (10 uM) and test compounds (0-30 uM) and incubated for 3 hours.” left out

[6] = test system: Mouse BV-2 microglial cells; assay: BV-2 glial cell assay (TNF-α and MCP-1 by Luminex); format: cell-based; conditions: for EC50: Mus musculus, BV-2, LPS and IFN-γ activated, 20 hours; for inhibiting glial cell activation (TNF-α and/or MCP-1): Table 3
Experimental: Mouse BV-2 microglial cells were seeded on 96-well plates at a concentration of 3×10^4 cells/well. Cells were activated with 100 ng/mL LPS and IFN-γ (100 ng/mL) in the presence or absence of test compounds (0-30 uM). Following incubation for 20 hours, cells were spun down and supernatant collected. The supernatant was analyzed via Luminex for the presence of TNF-α and MCP-1.

[7] = biological target: T3, recombinant full length human JNK2 enzyme (Homo sapiens, UniProt P45984); assay: JNK 2 inhibition assay (ATP depletion, luciferase); format: biochemical
T3 construct: recombinant full length human JNK2 or JNK3 enzyme; purchased Upstate; host or cells: Sf21 cells
Experimental: In a 96-well plate, recombinant full length human JNK2 or JNK3 enzyme (40 ng) expressed in Sf21 cells (Upstate) was incubated with the substrate ATF2 (3 uM) for 1 hour in the presence of 10 uM ATP. […] IC50 calculations were plotted using a nonlinear regression curve fit.

[8] = biological target: T4, catalytic domain of phosphodiesterase 4B enzyme cloned from human brain (Homo sapiens, UniProt Q07343); assay: PDE4 inhibition assay (PDELight); format: biochemical; conditions: for IC50: 5 uM cAMP, read-out: PDE 4 Inhibition (IC50 in μM)
T4 construct: the catalytic domain of phosphodiesterase 4B enzyme; purchased Scottish Biomedical
Summary of the method: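 Human PDE4B catalytic domain (40 mU/well) incubated with 5 uM cAMP. AMP formed was converted to ATP and measured by luciferase luminescence (PDELight). IC50 derived by nonlinear regression curve fit.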

[9] = test system: rat chronic constriction injury (CCI) model of neuropathic pain; assay: Rat chronic constriction injury (CCI) model of neuropathic pain; format: in vivo
[10] = Oral pharmacokinetic evaluation; format: in vivo, rat; conditions: Sprague-Dawley rats; for AUC(0-t) / Cmax / half-life: male, rat, plasma; for AUC(0-t): read-out: Oral PK AUClast; for Cmax: read-out: Oral PK Cmax; for half-life: Sprague-Dawley, po, 15 mg/kg
Experimental: Three male Sprague-Dawley rats were dosed orally via gavage with 15 mg/kg of test compound. Serial blood samples were collected from the jugular vein at 5, 15, and 30 min, 1, 3, and 6 hours post dosing. Samples were processed for plasma via centrifugation and plasma samples were stored frozen prior to analysis via a sensitive and specific HPLC/MS/MS method. PK parameters were calculated using WinNonLin (Pharsight).

[11] = test system: at least one of JNK 3 or JNK 2 and at least one of PDE 10 or PDE 4; assay: Dual inhibition (phosphodiesterase and JNK); format: biochemical, human; conditions: IC50 JNK 3 or JNK 2 less than about 5.00 μM and PDE 10 or PDE 4 less than about 20.0 or 30.0 μM
Experimental: In a 96-well plate, recombinant full length human JNK2 or JNK3 enzyme (40 ng) expressed in Sf21 cells (Upstate) was incubated with the substrate ATF2 (3 uM) for 1 hour in the presence of 10 uM ATP. The amount of ATP depletion by the JNK enzyme is measured in the presence or absence of test compounds (0-30 uM). The ATP levels were quantified using luciferase with luminescence read on a Victor Light 1420 luminometer. IC50 calculations were plotted using a nonlinear regression curve fit.
(§2) In a 96-well plate, the catalytic domain of phosphodiesterase 4B enzyme (40 mU/well) cloned from human brain (Scottish Biomedical) was combined with 5 uM cAMP substrate (Sigma). Test compounds (0-30 uM) or vehicle (0.5% DMSO) were added to the enzyme/substrate and incubated 1 hour. Using a PDELight® kit (Cambrex), the amount of AMP produced in the reaction from the hydrolysis of cAMP was quantified using PDELight AMP Detection Reagent which converts the AMP directly to ATP. The assay uses luciferase, which catalyses the formation of light from the newly formed ATP and luciferin. The luminescence was read on a Victor Light 1420 luminometer. IC50 calculations were plotted using a nonlinear regression curve fit.
as §2, with “plate, recombinant human” for “plate, the catalytic domain of”, “phosphodiesterase 10A1” for “phosphodiesterase 4B”, “enzyme (10 U/well) expressed in Baculovirus infected Sf9 cells (BPS Biosciences)” for “enzyme (40 mU/well) cloned from human brain (Scottish Biomedical)”, “with 1” for “with 5”

Water solubility = format: physicochemical; conditions: defined as at least 10 milligrams per milliliter in water at 25° C. and pH 7.0
Experimental: By “water soluble” is meant a compound that is soluble in water to an extent of at least 10 milligrams per milliliter in water at 25° C. and a pH 7.0.

[12] = read-out: MCP-1 BV-2 (EC50 in μM)
[13] = read-out: TNF-a BV-2 (EC50 in μM)
[14] = 10 uM ATP, ATF2 substrate, read-out: JNK 2 Inhibition (IC50 in μM)
[15] = dose not given, 50% paw withdrawal threshold, von Frey
[16] = read-out: IC50 value based upon a JNK 2 inhibition assay (range given)
[17] = 15 mg/kg oral gavage, read-out: Oral PK T½ (converted)

T2 sequence (Q9Y233 1-779 isoform Q9Y233-1): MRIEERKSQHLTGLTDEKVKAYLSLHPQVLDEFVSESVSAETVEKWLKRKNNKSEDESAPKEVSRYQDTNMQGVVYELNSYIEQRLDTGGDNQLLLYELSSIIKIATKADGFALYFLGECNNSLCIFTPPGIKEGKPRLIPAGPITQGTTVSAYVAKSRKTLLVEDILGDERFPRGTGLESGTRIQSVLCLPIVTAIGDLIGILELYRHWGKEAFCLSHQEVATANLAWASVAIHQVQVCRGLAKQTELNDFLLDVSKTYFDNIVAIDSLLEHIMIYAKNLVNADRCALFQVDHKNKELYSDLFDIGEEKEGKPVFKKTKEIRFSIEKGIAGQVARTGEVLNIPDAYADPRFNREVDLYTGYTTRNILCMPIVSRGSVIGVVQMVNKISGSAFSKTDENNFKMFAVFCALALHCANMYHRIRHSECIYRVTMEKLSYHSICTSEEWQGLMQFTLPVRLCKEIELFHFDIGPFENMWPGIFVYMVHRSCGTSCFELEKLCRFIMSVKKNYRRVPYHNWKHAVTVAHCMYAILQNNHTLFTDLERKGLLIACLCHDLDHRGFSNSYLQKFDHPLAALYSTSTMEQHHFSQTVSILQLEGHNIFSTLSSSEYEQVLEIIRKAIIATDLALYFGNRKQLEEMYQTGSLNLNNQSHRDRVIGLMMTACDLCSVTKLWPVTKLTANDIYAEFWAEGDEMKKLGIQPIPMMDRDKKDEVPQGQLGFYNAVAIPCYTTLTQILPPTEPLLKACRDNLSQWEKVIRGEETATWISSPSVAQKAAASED
T3 sequence (P45984 whole entry): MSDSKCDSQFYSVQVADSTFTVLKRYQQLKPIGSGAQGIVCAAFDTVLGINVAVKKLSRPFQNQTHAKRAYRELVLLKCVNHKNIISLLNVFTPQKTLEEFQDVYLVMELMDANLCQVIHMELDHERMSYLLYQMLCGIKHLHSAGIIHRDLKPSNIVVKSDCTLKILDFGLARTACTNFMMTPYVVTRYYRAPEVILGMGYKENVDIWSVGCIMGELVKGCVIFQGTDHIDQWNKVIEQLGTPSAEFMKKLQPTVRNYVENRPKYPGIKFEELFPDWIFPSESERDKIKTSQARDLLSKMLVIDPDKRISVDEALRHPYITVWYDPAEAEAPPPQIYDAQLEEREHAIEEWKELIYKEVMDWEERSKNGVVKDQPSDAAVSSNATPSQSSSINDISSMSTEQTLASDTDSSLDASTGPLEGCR
T1 sequence (P53779 whole entry): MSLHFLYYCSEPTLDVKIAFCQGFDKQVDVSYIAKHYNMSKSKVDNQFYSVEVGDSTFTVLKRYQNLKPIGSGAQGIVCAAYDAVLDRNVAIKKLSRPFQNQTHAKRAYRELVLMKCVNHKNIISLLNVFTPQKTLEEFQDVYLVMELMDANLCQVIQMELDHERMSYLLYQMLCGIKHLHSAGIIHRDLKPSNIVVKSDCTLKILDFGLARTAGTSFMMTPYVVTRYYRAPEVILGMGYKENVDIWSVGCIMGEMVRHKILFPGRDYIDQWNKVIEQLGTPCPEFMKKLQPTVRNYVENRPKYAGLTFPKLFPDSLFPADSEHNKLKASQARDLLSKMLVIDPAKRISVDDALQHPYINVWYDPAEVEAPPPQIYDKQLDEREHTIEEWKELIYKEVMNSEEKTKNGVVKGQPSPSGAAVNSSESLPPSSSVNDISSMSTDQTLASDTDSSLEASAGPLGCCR
T4 sequence (Q07343 330-659 limits assumed): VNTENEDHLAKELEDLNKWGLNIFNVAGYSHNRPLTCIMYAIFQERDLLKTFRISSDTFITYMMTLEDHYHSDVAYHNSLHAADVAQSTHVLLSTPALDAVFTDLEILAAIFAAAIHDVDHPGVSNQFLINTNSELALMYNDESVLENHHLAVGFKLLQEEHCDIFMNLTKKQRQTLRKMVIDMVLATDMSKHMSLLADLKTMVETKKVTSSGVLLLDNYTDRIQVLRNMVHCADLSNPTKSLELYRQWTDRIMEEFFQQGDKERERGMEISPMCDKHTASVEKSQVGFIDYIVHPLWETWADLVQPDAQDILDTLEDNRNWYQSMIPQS

| Compound | EC50 [1] [µM] | IC50 [2] [µM] | EC50 [3] [µM] | IC50 [4] [µM] | EC50 [5] [µM] | EC50 [6, 12] [µM] | EC50 [6, 13] [µM] | IC50 [7, 14] [µM] | PDE-4 inhibition (in words) [8] | IC50 [8] [µM] | IP CCI efficacy (Change in grams) [9, 15] [grams] | PDE-10 inhibition (in words) [4] | AUC(0-t) ([10]; 15 mg/kg oral gavage) [ng·h/mL] | Cmax ([10]; 15 mg/kg oral gavage) [ng/mL] | dual inhibition (phosphodiesterase and JNK) [11] | IC50 [7, 16] [µM] | JNK-3 inhibition (in words) [2] | inhibiting glial cell activation (TNF-α and/or MCP-1) [6] | further results |
| --- | --- | --- | --- | --- | --- | --- | --- | --- | --- | --- | --- | --- | --- | --- | --- | --- | --- | --- | --- |
| CC(C)C(=O)c1c(C(C)C)nn2ccccc12 [AV411, 1-(2-isopropylpyrazolo[1,5-a]pyridin-3-yl)-2-methylpropan-1-one, reference compound] | > 30 | > 100 | > 30 | 6.3 | 3.8 | 42 | 2.7 | > 100 |  |  |  |  |  |  |  |  |  |  |  |
| CCCNc1nccc(-c2c(C(C)C)nn3ccccc23)n1 [AV1153, 4-(2-isopropylpyrazolo[1,5-a]pyridin-3-yl)-N-propylpyrimidin-2-amine] | 3.6 | 4.1 | > 30 | 8.9 | > 30 |  |  |  | particularly effective | 11.5 | 1.85 | particularly effective | 32 | 13 | effective dual inhibitors | 0.01 to 2 |  |  |  |
| CC(C)c1nn2ccccc2c1-c1ccnc(NC2CCCC2)n1 [AV1154, N-cyclopentyl-4-(2-isopropylpyrazolo[1,5-a]pyridin-3-yl)pyrimidin-2-amine] | 13 | 6 | 3.4 | 3 | > 10 |  |  |  | particularly effective | 7.1 | 0 | particularly effective |  |  | effective dual inhibitors |  |  |  |  |
| CCCNc1nccc(-c2cnn3ccccc23)n1 [AV1166, N-propyl-4-(pyrazolo[1,5-a]pyridin-3-yl)pyrimidin-2-amine] | 37 | 0.4 | 1.4 | 38.2 | 11 | 1.1 | 0.9 | 1.3 |  | 16.5 |  | particularly effective |  |  | effective dual inhibitors | 0.01 to 2 | particularly effective | Particularly effective |  |
| Cc1cccc2c(-c3ccnc(NC(C)C)n3)cnn12 [AV1183, N-isopropyl-4-(7-methylpyrazolo[1,5-a]pyridin-3-yl)pyrimidin-2-amine] |  | 0.2 | 0.3 | 35 | 5.4 | 1.2 | 1.1 |  | particularly effective | 6.2 | 0.3 |  | 35 | 56 | effective dual inhibitors |  | particularly effective | Particularly effective | half-life [10, 17]: 1.1 h |
| c1ccn2nc(C3CC3)c(-c3ccnc(NC4CC4)n3)c2c1 [AV1200, N-cyclopropyl-4-(2-cyclopropylpyrazolo[1,5-a]pyridin-3-yl)pyrimidin-2-amine] |  | 1.9 |  | 7.7 |  | 0.3 | 1 | 1.6 | particularly effective | 2.7 |  | particularly effective | 1700 | 420 | effective dual inhibitors | 0.01 to 2 | particularly effective | Particularly effective | IP CCI efficacy (Change in grams) ([9]; 10 mg/kg): 0 (10 mg/kg); grams; IP CCI efficacy (Change in grams) ([9]; 20 mg/kg): 1.8 (20 mg/kg) grams; PO CCI efficacy (Change in grams) ([9]; 30 mg/kg): 0 (30 mg/kg); grams; PO CCI efficacy (Change in grams) ([9]; 60 mg/kg): 1.25 (60 mg/kg) grams; half life following oral dosing (in words) ([10]; oral): particularly prolonged half lives; half-life [10, 17]: 4.7 h; half-life ([10]; oral, read-out: half life following oral dosing): > 3 h; water soluble (Water solubility): water soluble |
| Oc1c2ccccc2c2c3c(cccc13)N=N2 [SP600125, reference compound] | 7.6 | 0.2 | 0.6 |  |  |  |  |  |  |  | 0.5 |  |  |  |  |  |  |  |  |
